From patent publication US10364245B2 (CHIESI FARMACEUTICI S.p.A., priority 2017, dated 2019)
Structures can show the parent of a compound that is named as a salt.

Key:
p38 alpha = molecular target: T1, p38 alpha (Homo sapiens, UniProt Q16539); assay: P38 alpha enzyme inhibition assay (Alphascreen kinase activity assay); format: biochemical; conditions: 100 pM p38 alpha, 2 hours preincubation at 25° C., 250 μM ATP, ATF-2 fusion protein; read-out: p38α inhibition
T1 construct: purchased Invitrogen PV3304
T1 sequence (Q16539 whole entry, the tested form may be a part): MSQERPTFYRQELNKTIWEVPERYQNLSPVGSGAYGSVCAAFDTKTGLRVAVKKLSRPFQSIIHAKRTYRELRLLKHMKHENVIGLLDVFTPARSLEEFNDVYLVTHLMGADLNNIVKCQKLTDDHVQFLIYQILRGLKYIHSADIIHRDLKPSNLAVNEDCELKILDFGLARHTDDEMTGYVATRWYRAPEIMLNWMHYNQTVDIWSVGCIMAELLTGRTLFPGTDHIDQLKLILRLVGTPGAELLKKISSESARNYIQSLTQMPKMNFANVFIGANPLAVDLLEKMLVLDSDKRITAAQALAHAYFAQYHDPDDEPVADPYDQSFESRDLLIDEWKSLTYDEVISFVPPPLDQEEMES
Summary of the method: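 100 pM p38 alpha preincubated 2 h at 25 °C with compound and 0.3 μg/ml ATF-2 fusion substrate (HEPES pH 7.5, MgCl2, 1% DMSO). Reaction started with 250 μM ATP, run 1 h at 25 °C, stopped with EDTA; phospho-ATF2 detected by AlphaScreen luminescence. IC50 from concentration-response curves.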

[1] = system: Peripheral Blood Mononuclear Cells (PBMCs), TNFα release; assay: LPS-stimulated PBMC TNFα release assay; format: cell-based; conditions: human PBMC, LPS (10 ng/ml), 18 h, compound 1 h before LPS; read-out: LPS-stimulated PBMC TNFα release inhibition
Summary of the method: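 Human PBMCs from healthy donors, serum-starved 3 h, then pre-incubated 1 h at 37 °C with compound in 1% FBS medium before LPS (10 ng/ml) for 18 h. Supernatant TNFα measured by MSD; IC50 from dose-response as % inhibition of control, at least three experiments.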

| Structure (SMILES) | IC50 (p38 alpha) | IC50 [1] |
| --- | --- | --- |
| CC(C)(C)c1cc(NC(=O)N[C@H]2CC[C@@H](Oc3ccc4nnc(C(C)(C)C)n4c3)c3ccccc32)cc(C(=O)NCCN2CC[C@H](O)C2)n1 [Example 195, 6-(tert-butyl)-4-(3-((1S,4R)-4-((3-(tert-butyl)-[1,2,4]triazolo[4,3-a]pyridin-6-yl)oxy)-1,2,3,4-tetrahydronaphthalen-1-yl)ureido)-N-(2-((S)-3-hydroxypyrrolidin-1-yl)ethyl)picolinamide] | < 1 nM | > 5 nM |
| COCC(C)(C)c1nnc2ccc(O[C@@H]3CC[C@H](NC(=O)Nc4cc(C(=O)NCC(C)(C)N(C)C)nc(C(C)(C)C)c4)c4ccccc43)cn12 [Example 196, 6-(tert-butyl)-N-(2-(dimethylamino)-2-methylpropyl)-4-(3-((1S,4R)-4-((3-(1-methoxy-2-methylpropan-2-yl)-[1,2,4]triazolo[4,3-a]pyridin-6-yl)oxy)-1,2,3,4-tetrahydronaphthalen-1-yl)ureido)picolinamide] | 1 to 10 nM | > 5 nM |
| CN1CCN(C(C)(C)c2nnc3ccc(O[C@@H]4CC[C@H](NC(=O)Nc5cc(CO)nc(C(C)(C)C)c5)c5ccccc54)cn23)CC1 [Example 198, 1-(2-(tert-butyl)-6-(hydroxymethyl)pyridin-4-yl)-3-((1S,4R)-4-((3-(2-(4-methylpiperazin-1-yl)propan-2-yl)-[1,2,4]triazolo[4,3-a]pyridin-6-yl)oxy)-1,2,3,4-tetrahydronaphthalen-1-yl)urea] | < 1 nM | > 5 nM |
| CN(C)CCNC(=O)c1cc(NC(=O)N[C@H]2CC[C@@H](Oc3ccc4nnc(C(C)(C)N5CCN(C)CC5)n4c3)c3ccccc32)cc(C(C)(C)C)n1 [Example 199, 6-(tert-Butyl)-N-(2-(dimethylamino)ethyl)-4-(3-((1S,4R)-4-((3-(2-(4-methylpiperazin-1-yl)propan-2-yl)-[1,2,4]triazolo[4,3-a]pyridin-6-yl)oxy)-1,2,3,4-tetrahydronaphthalen-1-yl)ureido)picolinamide formate salt] | 1 to 10 nM | > 5 nM |

Continued, in another order:

| IC50 (p38 alpha) | Structure (SMILES) | IC50 [1] |
| --- | --- | --- |
| < 1 nM | CC(C)(C)c1cc(NC(=O)N[C@H]2CC[C@@H](Oc3ccc4nnc(C(C)(C)C)n4c3)c3ccccc32)cc(C(=O)NCCN2CC(O)C2)n1 [Example 197, 6-(tert-butyl)-4-(3-((1S,4R)-4-((3-(tert-butyl)-[1,2,4]triazolo[4,3-a]pyridin-6-yl)oxy)-1,2,3,4-tetrahydronaphthalen-1-yl)ureido)-N-(2-(3-hydroxyazetidin-1-yl)ethyl)picolinamide] | > 5 nM |
| < 1 nM | CN1CCN(C(C)(C)c2nnc3ccc(O[C@@H]4CC[C@H](NC(=O)Nc5cc(C(=O)NCCO)nc(C(C)(C)C)c5)c5ccccc54)cn23)CC1 [Example 200, 6-(tert-Butyl)-N-(2-hydroxyethyl)-4-(3-((1S,4R)-4-((3-(2-(4-methylpiperazin-1-yl)propan-2-yl)-[1,2,4]triazolo[4,3-a]pyridin-6-yl)oxy)-1,2,3,4-tetrahydronaphthalen-1-yl)ureido)picolinamide formate salt] | > 5 nM |
| < 1 nM | CC[C@H](C)c1nnc2ccc(O[C@@H]3CC[C@H](NC(=O)Nc4cc(C(=O)NCCN(C)C)nc(C(C)(C)C)c4)c4ccccc43)cn12 [Example 201, 6-(tert-Butyl)-4-(3-((1S,4R)-4-((3-((S)-sec-butyl)-[1,2,4]triazolo[4,3-a]pyridin-6-yl)oxy)-1,2,3,4-tetrahydronaphthalen-1-yl)ureido)-N-(2-(dimethylamino)ethyl)-picolinamide formate salt] | 1 to 5 nM |
| 1 to 10 nM | CC[C@H](C)c1nnc2ccc(O[C@@H]3CC[C@H](NC(=O)Nc4cc(C(=O)NCC(C)(C)N(C)C)nc(C(C)(C)C)c4)c4ccccc43)cn12 [Example 202, 6-(tert-Butyl)-4-(3-((1S,4R)-4-((3-((S)-sec-butyl)-[1,2,4]triazolo[4,3-a]pyridin-6-yl)oxy)-1,2,3,4-tetrahydronaphthalen-1-yl)ureido)-N-(2-(dimethylamino)-2-methylpropyl)-picolinamide formate salt] | 1 to 5 nM |
